The results in this text go back to patent US11008572B2, “Methods and compositions for modulating splicing” (SKYHAWK THERAPEUTICS, INC., priority 2017, dated 2021).

As a reminder, the EC50 is the midpoint of the concentration-response curve.

The subject of one data set is A-673 cells. The data set can be described thus: Cell viability, crystal violet staining. Format: cell-based. To be noted: Homo sapiens. The gist of the method: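 Readout is absorbance at 570 nm of crystal violet, taken up in 0.1 M sodium citrate in 50% ethanol after staining with 0.5% dye in 25% methanol. Plates held 5×10^3 cells per well, and compounds were added one day after seeding for 72 hours. Data are relative to vehicle, mean±SE.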

For the next data set, the system named is SMN2^Δ7 mRNA. The data set can be described thus: SMN2 splicing assay, real-time quantitative PCR, SMA type I patient cells (GM03813). The data set is classed as cell-based. To be noted: Homo sapiens, 24 hours. As to the method:
(§1) Various cells lines were treated with the SMSMs described herein. RNA was then isolated, cDNA synthesized, qPCR performed and the levels of various mRNA targets of the SMSMs were determined. In some instances, RNA was isolated, cDNA synthesized, qPCR performed and the levels of mRNA isoforms in the various cell samples were determined.
(§2) SMA type I patient cells (GM03813 (Coriell))
(§3) On the day of the experiment, a 96-well plate was seeded with the cell lines of interest. The cells were diluted with full growth media to a concentration of 2.0×10^5 cells/mL and 100 μL of cells were added to each well (20,000 cells per well). The cells were treated with a compound immediately after plating.
(§4) The compounds were then added to the cell plate using the HP compound dispenser. In the initial experiment, a top concentration of 10 μM and an 8 point 4-fold dilution scheme was used. The stock compounds were made at a concentration of 5 mM, and the DMSO concentration was set to 0.2%. DMSO was used to normalize all the compound-containing wells and the untreated cells.
(§5) The treated cells were incubated at 37° C. in a 5% CO2 incubator for the desired amount of time. Plates were placed in a plastic bag with a wet paper towel to prevent evaporation.
(§6) RNA was isolated using the Cells to CT kit (ThermoFisher, AM1728). The cells were washed once with 100 μL cold PBS. 50 μL of lysis buffer was added to each well/tube (49.5 μL lysis buffer+0.5 μL DNase I per well/tube). The lysis reaction was mixed and incubated at room temperature for 5 minutes. 5 μL of stop solution was added directly into each cell lysis reaction and mixed by pipetting up and down 5 times. The plates/tubes were incubated at room temperature for 2 minutes then placed on ice if the cDNA synthesis was to be performed immediately. Otherwise, the plates/tubes were stored at −80° C.
(§7) cDNA synthesis reactions were then performed. 40 μL RT master mix was added to PCR tubes or plate wells. 10 μL of RNA was added to each tube/well. The RT thermal cycler program was then run and tubes or plate wells were incubated at 37° C. for 1 hour, then at 95° C. for 5 minutes to deactivate the enzyme.
(§8) The qPCR was performed using a QuantStudio 6instrument (ThermoFisher) and the following cycling conditions and according to the tables below. All samples and standards were analyzed in triplicate. Cycle 1: 2 minutes at 50° C. Cycle 2: 10 minutes at 95′C. Cycle 3 (repeat 40 times): 15 seconds at 95° C., 1 minute at 60° C.
(§9) The determined SMN2^Δ7 and SMN2^FL quantities were then be used to determine the SMN2^Δ7:SMN2^FL ratio at the various compound concentrations. The PPIA quantities were used in the normalization to account of cell proliferation effects of the compounds.
(§10) An assay to measure the SMN2^FL mRNA and SMN2^Δ7 mRNA simultaneously in cell wells was performed. The RNA values were measured relative to DMSO control and also included a housekeeping gene, PPIA to ensure data was consistent. The mRNA values were measured after 24 hours of incubation with the SMSM compounds.
(§11) Additionally, to monitor expression levels of SMN2 splice variant using real-time quantitative PCR, SMA type I patient cells (GM03813 (Coriell)) were plated at 5,000 cells/well in 200 μl Dulbecco's modified Eagle's medium (DMEM) with GlutaMAX and 10% fetal bovine serum (FBS) (Life Technologies, Inc.) in 96-well plates, and incubated for 6 hours in a cell culture incubator. Cells were then treated with SMSMs at different concentrations (0.5% DMSO) in duplicate for 24 hours. After removal of the supernatant, cells were lysed in Cells-To-Ct lysis buffer (Life Technologies, Inc.) according to the manufacturer's recommendations. The mRNA levels of SMN2 FL, SMN2 A7 were quantified using Taqman-based RT-qPCR and SMN2-specific primers and probes. The SMN2 forward and reverse primers were each used at a final concentration of 0.4 μM. The SMN2 probe was used at a final concentration of 0.1 μM. […]

A further data set concerns SMN2^FL mRNA. Described as above. The data set is classed as cell-based. To be noted: Homo sapiens, 24 hours. As to the method:
as §1, §2, §3, §4, §5, §6, §7, §8, §9, §10, §11

For another data set, the system named is A673 cells. The data set can be described thus: Dose-response cell proliferation, crystal violet assay, 72 h. The data set is classed as cell-based. To be noted: ratio of IC50 in NHDF cells to IC50 in A673 cells. As to the method:
Small molecule splicing modulators were tested in a dose-response assay using A673 cells and NHDF cells.
A673 cells or NHDF cells were first plated in 96-well plastic tissue culture plates (10,000 cells per well). The cells were treated with vehicle alone (DMSO), or increasing concentrations of SMSM compounds for 72 h. Following treatment, cell proliferation was determined using a crystal violet assay. The relative cell proliferation at each concentration was determined.

Data set [1] is described as follows: Maximum tolerable dose study. The data set is classed as in vivo. To be noted: mice, 3 per group. On the procedure:
Survival of mice after administration of SMSMs after 10 or 11 days was assessed.
Tolerance of the drug treatments was determined by measuring the weight of the mice during the period of drug administration. Body weight was measured prior to tumor inoculation and prior to the treatment administration and then daily. The changes in the final weight of the mice for the SMSM treatments were determined.

Data set [2] can be described thus: Splicing (IC50), Example 22. The data set is classed as cell-based. Particulars: spliced gene and cells not stated. On the procedure:
A-673 cell viability […], splicing (IC50) and brain AUC/Plasma AUC of SMSMs were determined. As shown in the tables below SMSMs had high CNS exposure.

Data set [3] has as its system FOXM1^A2 mRNA and FOXM1^BC mRNA. The data set can be described thus: Splicing assay (FOXM1), qPCR of isoform mRNAs. Format: cell-based. To be noted: for EC50: read-out: Splice EC50 (nM) FoxM1 A mRNA increase (exon excluded). The essentials: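 RT-qPCR read-out after 24 h compound exposure at 37° C., 0.2% DMSO, top dose 10 μM with 4-fold 8-point dilutions, 20,000 cells per well. Copy numbers from plasmid standard curves, PPIA-normalized, expressed as isoform ratio relative to DMSO.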
Background: Quantitative PCR measures a nucleic acid by following its amplification.

Where [4] appears, read: A673, cell viability, read-out: A-673 IC50 (nM) Cell viability.
The mark [5] stands for this setting: A673, read-out: A-673 cell viability (IC50).
Setting [6] is: FoxM1 BC mRNA decrease (exon included), read-out: Splice IC50 (nM) FoxM1 BC mRNA decrease (exon included).
[7] abbreviates: Homo sapiens, A673, 24 h, A-673 cells, 24 hours, table does not say EC50 or IC50, read-out: FOXM1.
Where [8] appears, read: Homo sapiens, A-375, 24 h, A-375 cells, 24 hours, table does not say EC50 or IC50, read-out: FOXM1.
[9] abbreviates: Homo sapiens, Hep3B, 24 h, Hep-3B cells, 24 hours, table does not say EC50 or IC50, read-out: FOXM1.
Setting [10] is: Homo sapiens, K562, 24 h, K-562 cells, 24 hours, table does not say EC50 or IC50, read-out: FOXM1.
Where [11] appears, read: Homo sapiens, MDA-MB-468, 24 h, MDA-MB-468 cells, 24 hours, table does not say EC50 or IC50, read-out: FOXM1.
The mark [12] stands for this setting: Homo sapiens, NCI-H358, 24 h, NCI-H358 cells, 24 hours, table does not say EC50 or IC50, read-out: FOXM1.
Setting [13] is: Homo sapiens, PANC-1, 24 h, PANC-1 cells, 24 hours, table does not say EC50 or IC50, read-out: FOXM1.
Setting [14] is: Homo sapiens, PC-3, 24 h, PC-3 cells, 24 hours, table does not say EC50 or IC50, read-out: FOXM1.
Setting [15] is: Homo sapiens, U-87 MG, 24 h, U-87MG cells, 24 hours, table does not say EC50 or IC50, read-out: FOXM1.

Like-named read-outs stand apart in the source and are kept apart here. Where only a bound is given, the exact number is not on record here.

For the compound `COc1cc(-c2ccc(-c3ccc(N(C)[C@@H]4C[C@H]5CCC[C@@H](C4)N5)nn3)c(O)c2)ccn1` [compound 289, 2-(6-(((1R,3s,5S)-9-azabicyclo[3.3.1]nonan-3-yl)(methyl)amino)pyridazin-3-yl)-5-(2-methoxypyridin-4-yl)phenol], the IC50 with A-673 cells (A673, cell viability, read-out: A-673 IC50 (nM), Cell viability) is less than 10 nM; in the data set on SMN2^Δ7 mRNA, 4 nM. Moreover, the EC50 with SMN2^FL mRNA is 4 nM.

For the compound `CN(c1ccc(-c2cc(F)c(-c3cn[nH]c3)cc2O)nn1)[C@H]1C[C@]2(C)CC[C@](C)(C1)N2` [compound 167, 2-(6-(((1R,3s,5S)-1,5-dimethyl-8-azabicyclo[3.2.1]octan-3-yl)(methyl)amino)pyridazin-3-yl)-4-fluoro-5-(1H-pyrazol-4-yl)phenol], the IC50 was less than 10 nM in the data set with A-673 cells (setting [4]); less than 0.5 nM in the data set on A-673 cells (setting [5]); less than 1 nM in data set [2]; less than 10 nM in data set [3] (setting [6]); less than 1 nM in data set [3] (setting [7]); less than 1 nM in data set [3] (setting [8]). In addition, the IC50 in data set [3] (setting [9]) was 11 to 100 nM; in data set [3] (setting [10]), 1 to 10 nM; in data set [3] (setting [11]), 1 to 10 nM; in data set [3] (setting [12]), less than 1 nM; in data set [3] (setting [13]) it was 11 to 100 nM; in data set [3] (setting [14]), 11 to 100 nM. In addition, the IC50 in data set [3] (setting [15]) is 11 to 100 nM. The “Ratio NHDF/A673 IC50” value in the data set on A673 cells is recorded as >2,500. For the same compound, the Outcome entry in data set [1] (IP 0.1 mg/kg BIDx12), in data set [1] (IP 0.3 mg/kg BIDx12), in data set [1] (IP 1 mg/kg QDx12) and in data set [1] (PO 5 mg/kg QDx12) was “All survived” in each case. For the same compound, in data set [3], the concentration for a half-maximal effect (EC50) was less than 10 nM.

For `CC(/C=C/C(=O)NO)=C\[C@@H](C)C(=O)c1ccc(N(C)C)cc1` [Trichostatin A], the “Ratio NHDF/A673 IC50” value in the data set with A673 cells was not above 10.

In the case of `CN(c1ccc(-c2ccc(-c3ccn(C)c(=O)c3)cc2O)nn1)[C@H]1C[C@]2(C)CC[C@](C)(C1)N2` [compound 168, 4-(4-(6-(((1R,3s,5S)-1,5-dimethyl-8-azabicyclo[3.2.1]octan-3-yl)(methyl)amino)pyridazin-3-yl)-3-hydroxyphenyl)-1-methylpyridin-2(1H)-one], the IC50 in the data set with A-673 cells (setting [4]) is less than 10 nM; in the data set with A-673 cells (setting [5]) it was not above 5 nM; in data set [2], less than 1 nM; in data set [3] (setting [6]) it was less than 10 nM; in data set [3] (setting [7]) it was 1 to 10 nM; in data set [3] (setting [8]), 1 to 10 nM. Also, the IC50 in data set [3] (setting [9]) lay within 101 to 200 nM; in data set [3] (setting [10]), 11 to 100 nM; in data set [3] (setting [11]), 11 to 100 nM; in data set [3] (setting [12]), 1 to 10 nM; in data set [3] (setting [13]) it was 101 to 200 nM; in data set [3] (setting [14]), 11 to 100 nM. Moreover, the IC50 in data set [3] (setting [15]) was 11 to 100 nM. The “Ratio NHDF/A673 IC50” value with A673 cells is reported as more than 500. The EC50 in data set [3] was more than 1000 nM.
